According to US20190300824A1, “BACTERIAL SPORE COMPOSITIONS FOR […]” (priority 2014, published 2019):
Bridge positions count the residues as written; N and C are the ends. Square brackets hold non-standard residues; d marks the D form. Peptide text beside a SMILES is read from it. * marks the point of attachment. Ileψ(thiazoline)Cys = CC[C@H](C)[C@H](N)C1=N[C@H](C(=O)*)CS1; dOrn = NCCC[C@@H](N)C(=O)O

System: Eimeria maxima and Clostridium perfringens
Format: in vivo, Cobb 500 Chicks (Gallus gallus domesticus)
Settings: in words

CC[C@H](C)[C@H](N)C1=N[C@H](C(=O)N[C@@H](CC(C)C)C(=O)N[C@H](CCC(=O)O)C(=O)N[C@H](C(=O)N[C@H]2CCCCNC(=O)[C@H](CC(N)=O)NC(=O)[C@@H](CC(=O)O)NC(=O)[C@H](Cc3cnc[nH]3)NC(=O)[C@@H](Cc3ccccc3)NC(=O)[C@H]([C@@H](C)CC)NC(=O)[C@@H](CCCN)NC2=O)[C@@H](C)CC)CS1 [Treatment Group 5, Bacitracin] ({Ileψ(thiazoline)Cys}-L[dE]IK[dOrn]I[dF]H[dD]N; lactam 4-C)
weight gain over the infected negative control: significant increase in weight gain
